Assay results as given in ChEMBL document CHEMBL1201862, “PubChem BioAssay data set” (2004).
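Cultured in 96-well plates, cells were exposed to test compound for 48 hours across five concentrations. Abbreviation: GI50, concentration required for 50% inhibition of growth.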 Calls of active or inactive are those of the source. Cut-off read from the data, not from the text of the source: active = GI50 up to about 1.1 µM and inactive = higher.

Key:
Assay in all cases: DTP human tumour cell line panel, 48 h
ACHN = system: ACHN
DLD-1 = system: DLD-1
HOP-62 = system: HOP-62
HOP-92 = system: HOP-92
KM12 = system: KM12
NCI-H226 = system: NCI-H226
NCI-H522 = system: NCI-H522
OVCAR-5 = system: OVCAR-5
RXF 393 = system: RXF 393
SF-539 = system: SF-539
SK-MEL-2 = system: SK-MEL-2
SK-MEL-5 = system: SK-MEL-5
UO-31 = system: UO-31
SW-620 = system: SW-620
BT-549 = system: BT-549
DU-145 = system: DU-145
Hs-578T = system: Hs-578T
MDA-MB-231 = system: MDA-MB-231
PC-3 = system: PC-3
LXFL 529 = system: LXFL 529

| SMILES | GI50 (ACHN) | GI50 (DLD-1) | GI50 (HOP-62) | GI50 (HOP-92) | GI50 (KM12) | GI50 (NCI-H226) | GI50 (NCI-H522) | GI50 (OVCAR-5) | GI50 (RXF 393) | GI50 (SF-539) | GI50 (SK-MEL-2) | GI50 (SK-MEL-5) | GI50 (UO-31) | GI50 (SW-620) | GI50 (BT-549) | GI50 (DU-145) | GI50 (Hs-578T) | GI50 (MDA-MB-231) | GI50 (PC-3) | GI50 (LXFL 529) |
| --- | --- | --- | --- | --- | --- | --- | --- | --- | --- | --- | --- | --- | --- | --- | --- | --- | --- | --- | --- | --- |
| C=CCC1[C@@H](C(C)(C)C(C(C)=O)C(=O)C(=O)OC)OC(C(C)(C)C)N1C(=O)OC (stereo not given in full) | > 100 µM (inactive) | > 100 µM (inactive) | > 100 µM (inactive) | 48.5 µM (inactive) | > 100 µM (inactive) | 52.6 µM (inactive) | > 100 µM (inactive) | 61.5 µM (inactive) | > 100 µM (inactive) | > 100 µM (inactive) | > 100 µM (inactive) | > 100 µM (inactive) | > 100 µM (inactive) | – | – | – | – | – | – | – |
| CC(=O)OCC1=C(CCC#N)N2C(=O)C(NC(=O)Cc3cccs3)C2[S+]([O-])C1 (stereo not given) | > 100 µM (inactive) | > 100 µM (inactive) | > 100 µM (inactive) | > 100 µM (inactive) | > 100 µM (inactive) | > 100 µM (inactive) | 44.6 µM (inactive) | > 100 µM (inactive) | > 100 µM (inactive) | > 100 µM (inactive) | > 100 µM (inactive) | > 100 µM (inactive) | > 100 µM (inactive) | > 100 µM (inactive) | – | – | – | – | – | – |
| NC(=O)c1csc(C2OC(CO)C(O)C2O)n1 (stereo not given) | 44.6 µM (inactive) | 8.57 µM (inactive) | 90.8 µM (inactive) | 115 µM (inactive) | 48.4 µM (inactive) | 723 µM (inactive) | 50.1 µM (inactive) | 436 µM (inactive) | 126 µM (inactive) | 20.3 µM (inactive) | 2340 µM (inactive) | 96.8 µM (inactive) | 53.2 µM (inactive) | 13.8 µM (inactive) | 885 µM (inactive) | 179 µM (inactive) | 44.7 µM (inactive) | 84.9 µM (inactive) | 4.9 µM (inactive) | – |
| Cc1cccc2c1Oc1cc(Cl)ccc1C2NC(=O)CN(C)C (stereo not given) | 22.8 µM (inactive) | 58.3 µM (inactive) | 57.7 µM (inactive) | – | – | 99.8 µM (inactive) | – | > 100 µM (inactive) | 26.5 µM (inactive) | 80.5 µM (inactive) | – | 21.6 µM (inactive) | 28.8 µM (inactive) | 66.4 µM (inactive) | – | – | – | – | – | 57.4 µM (inactive) |
| Cl[Si]1(Cl)Oc2ccccc2O[Si](Cl)(Cl)Oc2ccccc2O1 | 15.8 µM (inactive) | 34 µM (inactive) | 26.2 µM (inactive) | 17.7 µM (inactive) | 34.3 µM (inactive) | 38.5 µM (inactive) | 1.53 µM (inactive) | 27.7 µM (inactive) | – | 20.3 µM (inactive) | 20.5 µM (inactive) | 12.4 µM (inactive) | – | 15 µM (inactive) | – | – | – | – | – | – |
| Cc1ccccc1NC(=O)CSc1nnc(-c2ccc(/N=C\c3ccc(Cl)cc3)cc2)o1 | > 100 µM (inactive) | – | > 100 µM (inactive) | – | > 100 µM (inactive) | > 100 µM (inactive) | – | – | > 100 µM (inactive) | – | > 100 µM (inactive) | > 100 µM (inactive) | > 100 µM (inactive) | > 100 µM (inactive) | – | – | – | – | – | > 100 µM (inactive) |
| Cc1nc(=O)n2c(c1C(=O)Nc1ccc(Cl)cc1)NCCC2 | > 100 µM (inactive) | – | > 100 µM (inactive) | > 100 µM (inactive) | > 100 µM (inactive) | > 100 µM (inactive) | 2.97 µM (inactive) | > 100 µM (inactive) | > 100 µM (inactive) | > 100 µM (inactive) | > 100 µM (inactive) | – | – | > 100 µM (inactive) | – | – | – | – | – | > 100 µM (inactive) |
| O=C1OC[C@H]2[C@@H]1[C@H]1O[C@@H]2C2=C(CCC2)C1=O | > 100 µM (inactive) | – | > 100 µM (inactive) | > 100 µM (inactive) | > 100 µM (inactive) | > 100 µM (inactive) | > 100 µM (inactive) | > 100 µM (inactive) | > 100 µM (inactive) | > 100 µM (inactive) | > 100 µM (inactive) | > 100 µM (inactive) | > 100 µM (inactive) | > 100 µM (inactive) | > 100 µM (inactive) | > 100 µM (inactive) | > 100 µM (inactive) | > 100 µM (inactive) | > 100 µM (inactive) | – |
| CC(=O)N1C(CCc2ccccc2)CC(C)(C=O)C1Cc1ccc(O[Si](C(C)C)(C(C)C)C(C)C)cc1 (stereo not given) | 6.89 µM (inactive) | – | 8.11 µM (inactive) | 9.71 µM (inactive) | 3.02 µM (inactive) | 6.76 µM (inactive) | 2.15 µM (inactive) | 14.7 µM (inactive) | 1.69 µM (inactive) | 2.43 µM (inactive) | 3.48 µM (inactive) | 3.4 µM (inactive) | 3.21 µM (inactive) | 3.21 µM (inactive) | 15.6 µM (inactive) | 5.61 µM (inactive) | 3.28 µM (inactive) | 4.79 µM (inactive) | 3.18 µM (inactive) | – |
| Clc1ccc(SCCSCCCCCCCCCCSCCSc2ccc(Cl)cc2)cc1 | > 100 µM (inactive) | > 100 µM (inactive) | > 100 µM (inactive) | > 100 µM (inactive) | > 100 µM (inactive) | > 100 µM (inactive) | > 100 µM (inactive) | > 100 µM (inactive) | > 100 µM (inactive) | > 100 µM (inactive) | > 100 µM (inactive) | > 100 µM (inactive) | > 100 µM (inactive) | > 100 µM (inactive) | – | – | – | – | – | – |
| O=C1C(c2ccccc2)=[N+]([O-])c2cc([N+](=O)[O-])c(/C(Cl)=C/c3ccccc3)cc21 | 24.5 µM (inactive) | 14.2 µM (inactive) | – | – | 22.8 µM (inactive) | 31.2 µM (inactive) | – | 31.2 µM (inactive) | 22.9 µM (inactive) | 23.8 µM (inactive) | – | 20.4 µM (inactive) | 41.8 µM (inactive) | 17.3 µM (inactive) | – | – | – | – | – | > 10 µM (inactive) |
| C=C1CC2(C[C@@H](c3ccccc3)O[C@@H](c3ccccc3)C2)OC1=O (stereo not given in full) | 2.88 µM (inactive) | – | 14.4 µM (inactive) | 5.22 µM (inactive) | 4.39 µM (inactive) | 16 µM (inactive) | 1.48 µM (inactive) | 13.3 µM (inactive) | 1.94 µM (inactive) | 1.92 µM (inactive) | 3.98 µM (inactive) | 3.01 µM (inactive) | 6.24 µM (inactive) | 1.67 µM (inactive) | 1.76 µM (inactive) | 9.12 µM (inactive) | 2.31 µM (inactive) | 2.15 µM (inactive) | 3.5 µM (inactive) | – |
| CCOC(=O)Oc1ccc2c(c1)c(=O)c1c(NCCN(CC)CC)ccc3nnn2c31 | 0.406 µM (active) | – | 1.24 µM (inactive) | 4.22 µM (inactive) | 2.32 µM (inactive) | 0.711 µM (active) | 0.69 µM (active) | 10.6 µM (inactive) | 6.08 µM (inactive) | 0.748 µM (active) | 13.2 µM (inactive) | 1.7 µM (inactive) | 0.165 µM (active) | 0.438 µM (active) | 10.5 µM (inactive) | 1.89 µM (inactive) | 5.11 µM (inactive) | 2.48 µM (inactive) | 2.19 µM (inactive) | – |
| CC1OC(OC2C(O[C@H]3CC[C@@]4(C)C(=CC[C@H]5[C@@H]6C[C@@H]7O[C@]8(CC[C@@H](CO)CO8)[C@@H](C)[C@@H]7[C@@]6(C)CC[C@@H]54)C3)OC(CO)C(O)C2OC2OC(CO)C(O)C(O)C2O)C(O)C(O)C1O (stereo not given in full) | 1.73 µM (inactive) | – | 1.72 µM (inactive) | 1.76 µM (inactive) | 1.91 µM (inactive) | 1.97 µM (inactive) | 1.72 µM (inactive) | 2.22 µM (inactive) | 1.53 µM (inactive) | 1.6 µM (inactive) | 2.03 µM (inactive) | 1.64 µM (inactive) | 2.52 µM (inactive) | 1.86 µM (inactive) | > 10 µM (inactive) | 1.84 µM (inactive) | 2.91 µM (inactive) | 1.79 µM (inactive) | 1.9 µM (inactive) | – |
| Cc1ccc(/N=N/c2ccc(O)c(CN(C)C)c2)cc1C | 17.6 µM (inactive) | – | 15.5 µM (inactive) | 26.8 µM (inactive) | 16.9 µM (inactive) | 26.9 µM (inactive) | 10.6 µM (inactive) | 31.8 µM (inactive) | 17.5 µM (inactive) | 19.5 µM (inactive) | 16.2 µM (inactive) | 15.1 µM (inactive) | 8.3 µM (inactive) | 33.6 µM (inactive) | 25.6 µM (inactive) | 29.5 µM (inactive) | 16.4 µM (inactive) | 16.3 µM (inactive) | 40.9 µM (inactive) | – |
| COc1ccc(Cc2nc3cc(Cl)ccc3o2)cc1 | 59 µM (inactive) | – | > 100 µM (inactive) | 41.2 µM (inactive) | 27.7 µM (inactive) | 21.5 µM (inactive) | 21.2 µM (inactive) | 50.6 µM (inactive) | 22.6 µM (inactive) | 45.1 µM (inactive) | 23.3 µM (inactive) | 14.5 µM (inactive) | 33.3 µM (inactive) | 35.5 µM (inactive) | 19.4 µM (inactive) | 38.8 µM (inactive) | 49.2 µM (inactive) | 30.8 µM (inactive) | 32.3 µM (inactive) | – |
| C[N+]1(C)C2Cc3ccccc3C1Cc1ccccc12 | > 100 µM (inactive) | – | > 100 µM (inactive) | 61.1 µM (inactive) | > 100 µM (inactive) | > 100 µM (inactive) | > 100 µM (inactive) | > 100 µM (inactive) | > 100 µM (inactive) | > 100 µM (inactive) | > 100 µM (inactive) | > 100 µM (inactive) | > 100 µM (inactive) | > 100 µM (inactive) | > 100 µM (inactive) | > 100 µM (inactive) | > 100 µM (inactive) | > 100 µM (inactive) | 75.7 µM (inactive) | – |
